The target of the experiment is Recombinant PRC2 (EZH2-Y641F) (Homo sapiens, UniProt Q15910, Y641F). The experiment is described as follows: In vitro methyltransferase activity test (LANCE Ultra).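 Note: compounds tested as an 8-point threefold dilution series, fluorescence read after 1 h detection step at room temperature, IC50 derived from a four-parameter curve fit.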 Particulars: EZH2 Y641F IC50, Recombinant PRC2 (EZH2-Y641F), LANCE Ultra detection, 3 hours reaction.
Sequence of Recombinant PRC2 (EZH2-Y641F) (Q15910 whole entry Y641F): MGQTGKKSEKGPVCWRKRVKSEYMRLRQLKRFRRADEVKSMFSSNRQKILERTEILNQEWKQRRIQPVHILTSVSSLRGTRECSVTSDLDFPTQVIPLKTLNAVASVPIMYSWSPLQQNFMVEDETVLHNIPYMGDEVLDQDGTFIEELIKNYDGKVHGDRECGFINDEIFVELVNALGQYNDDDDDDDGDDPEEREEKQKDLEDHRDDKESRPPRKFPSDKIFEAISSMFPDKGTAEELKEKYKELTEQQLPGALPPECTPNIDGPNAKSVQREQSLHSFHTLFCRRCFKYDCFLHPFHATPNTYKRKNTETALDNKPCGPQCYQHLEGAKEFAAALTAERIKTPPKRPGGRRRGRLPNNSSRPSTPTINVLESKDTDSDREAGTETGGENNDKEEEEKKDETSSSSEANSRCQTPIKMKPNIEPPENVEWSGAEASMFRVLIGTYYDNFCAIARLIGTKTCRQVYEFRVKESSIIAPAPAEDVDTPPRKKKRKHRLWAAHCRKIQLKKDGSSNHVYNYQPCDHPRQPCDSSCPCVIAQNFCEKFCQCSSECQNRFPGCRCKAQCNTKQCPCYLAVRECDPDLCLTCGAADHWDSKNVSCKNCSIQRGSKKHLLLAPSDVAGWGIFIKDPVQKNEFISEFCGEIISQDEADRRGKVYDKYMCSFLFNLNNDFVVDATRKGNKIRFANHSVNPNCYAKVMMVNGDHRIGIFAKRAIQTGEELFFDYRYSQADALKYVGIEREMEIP
Sequence of Recombinant PRC2 (EZH2-Y641F) (O75530 whole entry partner): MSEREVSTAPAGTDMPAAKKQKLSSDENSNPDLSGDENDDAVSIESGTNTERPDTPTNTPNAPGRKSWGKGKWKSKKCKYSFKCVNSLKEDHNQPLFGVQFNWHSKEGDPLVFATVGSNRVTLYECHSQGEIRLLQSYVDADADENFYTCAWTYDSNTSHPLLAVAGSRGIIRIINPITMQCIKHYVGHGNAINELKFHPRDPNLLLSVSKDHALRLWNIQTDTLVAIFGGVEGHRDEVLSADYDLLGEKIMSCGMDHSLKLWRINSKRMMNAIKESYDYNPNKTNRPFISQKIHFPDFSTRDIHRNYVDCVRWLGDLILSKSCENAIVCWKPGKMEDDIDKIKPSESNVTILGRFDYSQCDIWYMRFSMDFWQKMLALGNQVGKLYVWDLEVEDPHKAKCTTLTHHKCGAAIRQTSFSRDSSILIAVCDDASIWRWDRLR
Sequence of Recombinant PRC2 (EZH2-Y641F) (Q15022 whole entry partner): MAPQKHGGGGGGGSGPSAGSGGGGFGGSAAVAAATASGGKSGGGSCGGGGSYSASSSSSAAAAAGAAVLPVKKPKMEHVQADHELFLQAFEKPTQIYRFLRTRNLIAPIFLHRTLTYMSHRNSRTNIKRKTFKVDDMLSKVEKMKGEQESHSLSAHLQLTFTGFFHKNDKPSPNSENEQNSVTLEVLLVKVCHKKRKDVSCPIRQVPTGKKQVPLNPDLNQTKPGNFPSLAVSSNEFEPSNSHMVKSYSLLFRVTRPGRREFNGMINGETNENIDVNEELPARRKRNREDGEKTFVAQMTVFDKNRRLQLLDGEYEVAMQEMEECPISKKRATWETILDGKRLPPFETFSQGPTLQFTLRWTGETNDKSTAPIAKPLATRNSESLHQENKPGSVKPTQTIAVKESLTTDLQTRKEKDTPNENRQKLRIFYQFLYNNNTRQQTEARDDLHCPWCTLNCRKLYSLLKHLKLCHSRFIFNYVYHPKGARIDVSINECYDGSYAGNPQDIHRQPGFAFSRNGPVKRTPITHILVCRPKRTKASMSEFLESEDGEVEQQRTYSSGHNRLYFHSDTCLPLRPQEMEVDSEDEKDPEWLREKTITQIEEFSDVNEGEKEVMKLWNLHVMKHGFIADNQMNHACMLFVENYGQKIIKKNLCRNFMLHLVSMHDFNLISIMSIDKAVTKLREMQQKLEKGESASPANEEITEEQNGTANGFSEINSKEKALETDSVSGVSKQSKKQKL
Sequence of Recombinant PRC2 (EZH2-Y641F) (Q09028 whole entry partner): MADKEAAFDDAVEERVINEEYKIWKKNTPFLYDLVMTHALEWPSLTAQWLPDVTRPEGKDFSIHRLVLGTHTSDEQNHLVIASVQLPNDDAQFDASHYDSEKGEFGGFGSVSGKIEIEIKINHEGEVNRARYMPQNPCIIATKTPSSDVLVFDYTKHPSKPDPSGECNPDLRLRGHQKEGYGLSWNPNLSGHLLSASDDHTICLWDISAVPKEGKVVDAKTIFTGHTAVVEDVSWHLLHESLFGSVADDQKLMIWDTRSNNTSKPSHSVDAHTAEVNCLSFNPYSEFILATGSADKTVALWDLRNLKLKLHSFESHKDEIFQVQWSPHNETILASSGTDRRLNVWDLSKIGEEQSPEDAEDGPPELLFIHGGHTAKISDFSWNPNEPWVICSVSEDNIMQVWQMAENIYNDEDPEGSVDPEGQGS
Sequence of Recombinant PRC2 (EZH2-Y641F) (Q6ZN18 whole entry partner): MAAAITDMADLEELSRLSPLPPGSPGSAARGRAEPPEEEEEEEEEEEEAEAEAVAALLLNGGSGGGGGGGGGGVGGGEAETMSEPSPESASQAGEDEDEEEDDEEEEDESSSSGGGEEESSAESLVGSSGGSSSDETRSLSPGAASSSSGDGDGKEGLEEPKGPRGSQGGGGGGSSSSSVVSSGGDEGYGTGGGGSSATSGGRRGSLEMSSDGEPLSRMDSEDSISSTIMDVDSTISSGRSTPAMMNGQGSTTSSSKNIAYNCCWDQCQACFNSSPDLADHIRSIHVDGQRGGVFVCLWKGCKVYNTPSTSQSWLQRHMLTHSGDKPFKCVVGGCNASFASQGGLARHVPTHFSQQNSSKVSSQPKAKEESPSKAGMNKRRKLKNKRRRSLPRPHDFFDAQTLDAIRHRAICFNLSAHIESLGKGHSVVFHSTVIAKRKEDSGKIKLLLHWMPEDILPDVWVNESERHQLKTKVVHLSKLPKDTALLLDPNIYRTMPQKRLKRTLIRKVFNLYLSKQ

By IC50 is commonly meant the concentration that inhibits the measured activity by half. `CCN(c1cc(-c2ccc(N3CCN(C)CC3)nc2)cc2c(NCc3c(C)cc(C)[nH]c3=O)nccc12)C1CCN(CCOC)CC1` [Compound Z-81]: the IC50 was 53 nM.
The same measure for `CCN(c1cc(-c2cccnc2)cc2c(NCc3c(C)cc(C)[nH]c3=O)nccc12)C1CCN(C(C)C)CC1` [Compound Z-68]: 150 nM; for `CCN(c1cc(-c2ccc(N3CCNCC3)nc2)cc2c(NCc3c(C)cc(C)[nH]c3=O)nccc12)C1CCC(NC(C)=O)CC1` (stereo not shown) [Compound Z-156]: 37 nM; for `CCN(c1cc(-c2ccc(N3CCNCC3)nc2)cc2c(NCc3c(C)cc(C)[nH]c3=O)nccc12)C1CCOCC1` [Compound Z-151]: 50 nM.
The same measure for `CCN(c1cc(-c2ccc(CN3CCN(C)CC3)cc2)cc2c(NCc3c(C)cc(C)[nH]c3=O)nccc12)C1CCOCC1` [Compound Z-29]: 157 nM; for `CCN(c1cc(-c2nccn2C)cc2c(NCc3c(C)cc(C)[nH]c3=O)nccc12)C1CCOCC1` [Compound Z-117]: 348 nM.
The same measure for `CCN(c1cc(C#CCN2CCOCC2)cc2c(NCc3c(C)cc(C)[nH]c3=O)nccc12)C1CCN(C(C)=O)CC1` [Compound Z-181]: 226 nM; for `CCN(c1cc(Cl)cc2c(NCc3c(C)cc(C)[nH]c3=O)nccc12)C1CCOCC1` [Compound Z-4, 3-((7-chloro-5-(ethyl (tetrahydro-2H-pyran-4-yl)amino)isoquinolin-1-ylamino)methyl)-4,6-dimethyl-2(1H)-one]: 295 nM.
In the case of `CCN(c1cc(-c2ccc(N3CCN(C)CC3)nc2)cc2c(NCc3c(C)cc(C)[nH]c3=O)nccc12)C1CCOCC1` [Compound Z-24], the IC50 was 152 nM.
In the case of `CCN(c1cc(Cl)cc2c(NCc3c(C)cc(C)nc3O)nccc12)C1CC2CNCC2C1` (stereo not shown) [Compound Z-9, 3-((7-chloro-5-(ethyl (octahydrocyclopenta[c]pyrrol-5-yl)amino)isoquinolin-1-ylamino)methyl)-4,6-dimethylpyridine-2-ol] it was 57 nM.
The same measure for `CCN(c1cc(-c2ccc(N3CCN(C)CC3)nc2)cc2c(NCc3c(C)cc(C)[nH]c3=O)nccc12)C1CCN(C)CC1` [Compound Z-50]: 26 nM; for `CCN(c1cc(-c2ccc(CN3CCCCC3)cc2)cc2c(NCc3c(C)cc(C)[nH]c3=O)nccc12)C1CCOCC1` [Compound Z-23]: 212 nM; for `CCN(c1cc(Cl)cc2c(NCc3c(C)cc(C)[nH]c3=O)nccc12)C1CCC(N2CCC2)CC1` (stereo not shown) [Compound Z-205]: 35 nM.
In the case of `CCN(c1cc(-c2ccc(CN3CCC[C@H](O)C3)cc2)cc2c(NCc3c(C)cc(C)[nH]c3=O)nccc12)C1CCOCC1` [Compound Z-31] it was 328 nM.
On to `CCN(c1cc(Nc2cccnc2)cc2c(NCc3c(C)cc(C)[nH]c3=O)nccc12)[C@H]1CC[C@H](N(C)C)CC1` [Compound Z-182], for which the IC50 came out at 504 nM.
Take `CCN(CC)Cc1ccc(-c2cc(N(CC)C3CCOCC3)c3ccnc(NCc4c(C)cc(C)[nH]c4=O)c3c2)cc1` [Compound Z-27]: the half-inhibitory concentration (IC50) stood at 96 nM.
For `CCN(c1cc(C(=O)NC2CCN(C)CC2)cc2c(NCc3c(C)cc(C)[nH]c3=O)nccc12)C1CCC(N(C)C)CC1` (stereo not shown) [Compound Z-172], the IC50 is 81 nM.
In the case of `CCN(c1cc(-c2ccc(NC3CCN(C)CC3)cc2)cc2c(NCc3c(C)cc(C)[nH]c3=O)nccc12)C1CCOCC1` [Compound Z-158] it was 367 nM; in that of `CCN(c1cc(-c2cnn(C)c2)cc2c(NCc3c(C)cc(C)[nH]c3=O)nccc12)[C@H]1CC[C@H](N(C)C)CC1` [Compound Z-38], 138 nM; in that of `CCN(c1cc(-c2ccc(CN3CCNCC3)nc2)cc2c(NCc3c(C)cc(C)[nH]c3=O)nccc12)C1CCC(N(C)C)CC1` (stereo not shown) [Compound Z-154], 19 nM.
In the case of `CCN(c1cc(-c2ccc(N3CCN(C)CC3)c(F)c2)cc2c(NCc3c(C)cc(C)[nH]c3=O)nccc12)C1CCC(N(C)C)CC1` (stereo not shown) [Compound Z-80] it was 26 nM; in that of `CCN(c1cc(-c2cnc(N3CCOCC3)nc2)cc2c(NCc3c(C)cc(C)[nH]c3=O)nccc12)C1CCN(C(C)C)CC1` [Compound Z-62], 80 nM.

The values are drawn from patent US20200262813A1, “1,5,7-TRISUBSTITUTED ISOQUINOLINE DERIVATIVES, PREPARATION THEREOF, AND USE THEREOF IN MEDICINES” (SHANGHAI HAIYAN PHARMACEUTICAL TECHNOLOGY CO., LTD., priority 2016, published 2020).
